Tests used:
Format in all cases: biochemical
JAK1 = molecular target: T1, JAK1 (Homo sapiens, UniProt P23458); test: JAK1 inhibition (Table 4); settings: read-out: JAK1 Ki
T1 construct: made in house; host or cells: SF9 insect cells (baculovirus)

JAK2 = molecular target: T2, JAK2 (Homo sapiens, UniProt O60674); test: JAK2 inhibition (Table 4); settings: read-out: JAK2 Ki
T2 construct: made in house; host or cells: SF9 insect cells (baculovirus)

JAK3 = molecular target: T3, JAK3 (Homo sapiens, UniProt P52333); test: JAK3 inhibition (Table 4); settings: read-out: JAK3 Ki
T3 construct: made in house; host or cells: SF9 insect cells (baculovirus)
T3 sequence (P52333 783-1124): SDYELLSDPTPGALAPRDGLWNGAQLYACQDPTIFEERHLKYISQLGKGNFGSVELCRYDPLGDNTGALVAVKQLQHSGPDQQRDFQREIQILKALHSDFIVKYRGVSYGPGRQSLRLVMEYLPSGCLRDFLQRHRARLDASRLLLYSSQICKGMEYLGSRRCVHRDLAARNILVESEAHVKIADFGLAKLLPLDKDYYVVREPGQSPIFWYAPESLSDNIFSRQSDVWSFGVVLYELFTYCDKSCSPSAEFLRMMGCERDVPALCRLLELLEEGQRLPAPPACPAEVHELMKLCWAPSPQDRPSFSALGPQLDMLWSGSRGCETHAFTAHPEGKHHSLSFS

TYK2 = molecular target: T4, TYK2 (Homo sapiens, UniProt P29597); test: TYK2 inhibition (Table 4)
T4 construct: made in house; host or cells: SF9 insect cells (baculovirus)
T4 sequence (P29597 873-1187): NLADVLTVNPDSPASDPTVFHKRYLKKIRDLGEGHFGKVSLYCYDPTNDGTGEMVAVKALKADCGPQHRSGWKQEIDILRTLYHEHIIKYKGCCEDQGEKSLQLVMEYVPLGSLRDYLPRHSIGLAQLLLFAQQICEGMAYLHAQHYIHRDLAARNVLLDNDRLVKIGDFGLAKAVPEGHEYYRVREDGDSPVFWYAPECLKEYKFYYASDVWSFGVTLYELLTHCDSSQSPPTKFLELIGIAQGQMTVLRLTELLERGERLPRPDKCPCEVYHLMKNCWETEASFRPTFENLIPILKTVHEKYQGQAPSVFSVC

T2 sequence (O60674 812-1132): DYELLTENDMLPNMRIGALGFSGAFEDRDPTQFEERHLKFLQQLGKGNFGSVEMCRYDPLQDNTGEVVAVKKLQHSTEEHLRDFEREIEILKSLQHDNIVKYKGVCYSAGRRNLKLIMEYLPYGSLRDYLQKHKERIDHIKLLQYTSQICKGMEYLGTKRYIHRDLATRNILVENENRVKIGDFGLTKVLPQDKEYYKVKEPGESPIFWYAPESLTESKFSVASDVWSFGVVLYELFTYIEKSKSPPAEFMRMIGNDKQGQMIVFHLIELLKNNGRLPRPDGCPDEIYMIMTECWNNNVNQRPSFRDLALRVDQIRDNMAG
T1 sequence (P23458 852-1154): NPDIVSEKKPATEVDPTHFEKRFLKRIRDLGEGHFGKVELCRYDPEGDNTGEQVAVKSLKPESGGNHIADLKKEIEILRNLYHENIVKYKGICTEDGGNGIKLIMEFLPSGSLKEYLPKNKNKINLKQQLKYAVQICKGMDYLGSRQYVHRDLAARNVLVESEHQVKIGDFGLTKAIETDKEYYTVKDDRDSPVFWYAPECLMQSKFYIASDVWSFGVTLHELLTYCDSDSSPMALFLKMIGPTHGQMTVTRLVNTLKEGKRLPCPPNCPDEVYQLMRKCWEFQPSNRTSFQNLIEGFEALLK

Row | Ki (JAK1) | Ki (JAK2) | Ki (JAK3) | Ki (TYK2) | SMILES
1 | 472 nM | 832 nM | 613 nM | – | COCC(=O)NC1CCCC(n2cnc3cnc4[nH]ccc4c32)C1 (single isomer, unassigned) [Example 483, 2-Methoxy-N-[3-(6H-1,3,5,6-tetraaza-as-indacen-1-yl)-cyclohexyl]-acetamide]
2 | 432 nM | 1800 nM | 1780 nM | – | c1cc2c(ncc3nc(C4CCCN4)n(C4CCCOC4)c32)[nH]1 (single isomer, unassigned) [Example 665]
3 | 1690 nM | – | 4010 nM | – | c1cc2c(ncc3nc(C4CCCN4)n(C4CCCOC4)c32)[nH]1 (single isomer, unassigned) [Example 666]
4 | 112 nM | 710 nM | 2650 nM | – | CC(C)(C)OC(=O)N1CCCC[C@H]1CN[C@H]1CC[C@H](n2cnc3cnc4[nH]ccc4c32)CC1 [Example 564, trans (S)-2-{[4-(6H-1,3,5,6-Tetraaza-as-indacen-1-yl)-cyclohexylamino]-methyl}-piperidine-1-carboxylic acid tert-butyl ester]
5 | 453 nM | 763 nM | 2090 nM | – | CC(C)(C)OC(=O)N1CCC(n2c(NCCO)nc3cnc4[nH]ccc4c32)CC1 [Example 654, 4-[(2-Hydroxy-ethylamino)-6H-1,2,3,5,6-tetraaza-as-indacen-1-yl]-piperidine-1-carboxylic acid tert-butyl ester]
6 | 29.1 nM | 1280 nM | 668 nM | – | COCCNc1nc2cnc3[nH]ccc3c2n1C1CCNCC1 [Example 657, (2-Methoxy-ethyl)-(1-piperidin-4-yl-1,6-dihydro-1,2,3,5,6-tetraaza-as-indacen-2-yl)-amine]
7 | 380 nM | 1490 nM | 4000 nM | – | C[C@H](O)c1nc2cnc3[nH]ccc3c2n1[C@@H]1CCCN(C(=O)Cn2ccnc2)C1 [Example 781, 1-{(R)-3-[2-((S)-1-Hydroxy-ethyl)-6H-1,3,5,6-tetraaza-as-indacen-1-yl]-piperidin-1-yl}-2-imidazol-1-yl-ethanone]
8 | 224 nM | – | – | – | COCCC(=O)N1CCC[C@@H](n2c([C@@H](C)O)nc3cnc4[nH]ccc4c32)C1 [Example 784, 1-{(R)-3-[2-((R)-1-Hydroxy-ethyl)-6H-1,3,5,6-tetraaza-as-indacen-1-yl]-piperidin-1-yl}-3-methoxy-propan-1-one]
9 | 464 nM | – | 2490 nM | – | CC(O)c1nc2cnc3[nH]ccc3c2n1C1CCCN(C(=O)C2CC(=O)N(C)C2)C1 (centres unmarked) [Example 787, 4-{3-[2-(1-Hydroxy-ethyl)-6H-1,3,5,6-tetraaza-as-indacen-1-yl]-piperidine-1-carbonyl}-1-methyl-pyrrolidin-2-one]
10 | 438 nM | – | – | – | CC(O)c1nc2cnc3[nH]ccc3c2n1C1CCCN(C(=O)CC2CCCO2)C1 (centres unmarked) [Example 789, 1-{3-[2-(1-Hydroxy-ethyl)-6H-1,3,5,6-tetraaza-as-indacen-1-yl]-piperidin-1-yl}-2-(tetrahydro-furan-2-yl)-ethanone]
11 | 159 nM | 1750 nM | 1630 nM | – | C[C@@H](O)c1nc2cnc3[nH]ccc3c2n1[C@@H]1CCCN(C(=O)CCn2ccnc2)C1 [Example 797, 1-{(R)-3-[2-((R)-1-Hydroxy-ethyl)-6H-1,3,5,6-tetraaza-as-indacen-1-yl]-piperidin-1-yl}-3-imidazol-1-yl-propan-1-one]
12 | 456 nM | – | – | – | COC1CCC(C(=O)N2CCCC(n3c(C(C)O)nc4cnc5[nH]ccc5c43)C2)CC1 (centres unmarked) [Example 799, {3-[2-(1-Hydroxy-ethyl)-6H-1,3,5,6-tetraaza-as-indacen-1-yl]-piperidin-1-yl}-(4-methoxy-cyclohexyl)-methanone]
13 | – | 93.9 nM | 60 nM | 30.1 nM | CC(=O)NCc1nc2cnc3[nH]ccc3c2n1C1CCCCC1 [Example 918, N-(1-Cyclohyl-1,6-dihydro-1,3,5,6-tetraaza-as-indacen-2-ylmethyl)-acetamide]
14 | 255 nM | 1420 nM | – | – | CC(C)N1CCCC[C@H]1C(=O)N1CCC(n2cnc3cnc4[nH]ccc4c32)CC1 [Example 950, ((S)-1-Isopropyl-piperidin-2-yl)-[4-(6H-1,3,5,6-tetraaza-as-indacen-1-yl)-piperidin-1-yl]-methanone]
15 | 142 nM | 628 nM | – | – | COCCN1CCCC[C@H]1C(=O)N1CCC(n2cnc3cnc4[nH]ccc4c32)CC1 [Example 952, [(S)-1-(2-Methoxy-ethyl)-piperidin-2-yl]-[4-(6H-1,3,5,6-tetraaza-as-indacen-1-yl)-piperidin-1-yl]-methanone]
16 | – | 5.13 nM | 36.8 nM | 14.3 nM | Cc1nc2cnc3[nH]ccc3c2n1[C@H]1CC[C@@H](C(C)(C)O)CC1 [Example 958, Cis-2-[4-(2-Methyl-6H-1,3,5,6-tetraaza-as-indacen-1-yl)-cyclohexyl]-propan-2-ol]

The remaining lines, values behind:

Row | SMILES | Ki (JAK1) | Ki (JAK2) | Ki (JAK3) | Ki (TYK2)
17 | CN1CCC(C(=O)N2CCC(n3cnc4cnc5[nH]ccc5c43)CC2)C1 (racemic) [Example 452, (1-Methyl-pyrrolidin-3-yl)-[4-(6H-1,3,5,6-tetraaza-as-indacen-1-yl)-piperidin-1-yl]-methanone] | 316 nM | 1170 nM | – | –
18 | Cc1nc2cnc3[nH]ccc3c2n1C(C)C1CCCO1 (single isomer, unassigned) [Example 427, 2-Methyl-1-[1-(tetrahydro-furan-2-yl)-ethyl]-1,6-dihydro-1,3,5,6-tetraaza-as-indacene] | 201 nM | 167 nM | – | –
19 | CN1CCCC(C(=O)N2CCC(n3cnc4cnc5[nH]ccc5c43)CC2)C1 (single isomer, unassigned) [Example 453, (1-Methyl-piperidin-3-yl)-[4-(6H-1,3,5,6-tetraaza-as-indacen-1-yl)-piperidin-1-yl]-methanone] | 263 nM | 1410 nM | – | –
20 | CN1CCCC(C(=O)N2CCC(n3cnc4cnc5[nH]ccc5c43)CC2)C1 (single isomer, unassigned) [Example 454, (1-Methyl-piperidin-3-yl)-[4-(6H-1,3,5,6-tetraaza-as-indacen-1-yl)-piperidin-1-yl]-methanone] | 547 nM | 1310 nM | – | –
21 | c1cc(N2CCC[C@@H](n3cnc4cnc5[nH]ccc5c43)C2)ccn1 [Example 13, (R)-1-(3,4,5,6-Tetrahydro-2H-[1,4]bipyridinyl-3-yl)-1,6-dihydro-1,2,3,5,6-tetraaza-as-indacene] | 179 nM | 898 nM | 1840 nM | –
22 | CC(=O)N1CCC(n2c(C(F)(F)CN)nc3cnc4[nH]ccc4c32)CC1 [Example 139, 1-{4-[2-(2-Amino-1,1-difluoro-ethyl)-6H-1,2,3,5,6-tetraaza-as-indacen-1-yl]-piperidin-1-yl}-ethanone] | 339 nM | 930 nM | 1450 nM | –
23 | c1cncc(-c2nc3cnc4[nH]ccc4c3n2C2CCNCC2)c1 [Example 153, 1-Piperidin-4-yl-2-pyridin-3-yl-1,6-dihydro-1,2,3,5,6-tetraaza-as-indacene] | 181 nM | 587 nM | 784 nM | –
24 | c1ccc(CN2CCC(n3c(C4CCOCC4)nc4cnc5[nH]ccc5c43)CC2)cc1 [Example 154, 1-(1-Benzyl-piperidin-4-yl)-2-(tetrahydro-pyran-4-yl)-1,6-dihydro-1,2,3,5,6-tetraaza-as-indacene] | 15.3 nM | 28.4 nM | 9.24 nM | –
25 | c1ccc(CN2CCC(n3c(CN4CCOCC4)nc4cnc5[nH]ccc5c43)CC2)cc1 [Example 155, 1-(1-Benzyl-piperidin-4-yl)-2-morpholin-4-ylmethyl-1,6-dihydro-1,2,3,5,6-tetraaza-as-indacene] | 120 nM | 452 nM | 304 nM | –
26 | CC(C)(C#N)c1nc2cnc3[nH]ccc3c2n1C1CCN(Cc2cnccn2)CC1 [Example 164, 2-Methyl-2-[1-(1-pyrazin-2-ylmethyl-piperidin-4-yl)-1,6-dihydro-1,2,3,5,6-tetraaza-as-indacen-2-yl]-propionitrile] | 52.8 nM | 129 nM | 57.1 nM | –
27 | CC(C)(O)c1nc2cnc3[nH]ccc3c2n1C1CCN(Cc2ccccc2)CC1 [Example 171, 2-[1-(1-Benzyl-piperidin-4-yl)-1,6-dihydro-1,2,3,5,6-tetraaza-as-indacen-2-yl]-propan-2-ol] | 49.9 nM | 241 nM | 103 nM | –
28 | CC(C)(O)Cc1nc2cnc3[nH]ccc3c2n1C1CCNCC1 [Example 173, 2-Methyl-1-(1-piperidin-4-yl-1,6-dihydro-1,2,3,5,6-tetraaza-as-indacen-2-yl)-propan-2-ol] | 215 nM | – | 3900 nM | –
29 | O=C(c1nc2cnc3[nH]ccc3c2n1C1CCN(Cc2ccccc2)CC1)N1CCOCC1 [Example 237, [1-(1-Benzyl-piperidin-4-yl)-1,6-dihydro-1,3,5,6-tetraaza-as-indacen-2-yl]-morpholin-4-yl-methanone] | 106 nM | 494 nM | 47 nM | –
30 | CC(C)(C)OC(=O)N1CC(F)(F)C[C@H]1C(=O)N1CCC(n2cnc3cnc4[nH]ccc4c32)CC1 [Example 243, (S)-4,4-Difluoro-2-[4-(6H-1,3,5,6-tetraaza-as-indacen-1-yl)-piperidine-1-carbonyl]-pyrrolidine-1 carboxylic acid tert-butyl ester] | 357 nM | 446 nM | – | –
31 | CC(C)(O)c1nc2cnc3[nH]ccc3c2n1C1CCNCC1 [Example 334, 2-(1-Piperidin-4-yl-1,6-dihydro-1,3,5,6-tetraaza-as-indacen-2-yl)-propan-2-ol] | 137 nM | 2240 nM | 2550 nM | –
